According to patent publication US6413946B1, “Composition for treatment of diabetes and treatment of diabetes” (Meiji Seika Kaisha, Ltd., priority 1997, dated 2002):
Entries after “also recorded” stand apart in the source; their conditions may differ.

Assays:
STZ diabetic rats [1] = test: General observation of body conditions of STZ diabetic rats (Example 1); type: in vivo, Wistar rats; conditions: oral twice a day for 5 consecutive days, VOSO4 50 mg/kg, FOM-Na 160 mg/kg
Experimental: (§1) In this Example, as animals to be tested, the STZ diabetic rats were prepared from normal Wistar rats having an average body weight of 250 g (male, 6 weeks of age). For this purpose, the normal Wistar rats were made diabetic by a single administration of a dose of 60 mg/kg of STZ intravenously. The normal Wistar rats (male) which are to be subjected to the STZ administration, when they were given 20 g/day of feed and 36 g/day of water, had have such body conditions that average values each of their urine volume output, serum glucose level, serum urea nitrogen level, serum creatinine level, serum total protein level and serum albumin level of the rats are amounting to 18 ml, 152 mg/dl, 18.0 mg/dl, 0.5 mg/dl, 5.63 g/dl and 4.2 g/dl, respectively.
(§2) The STZ diabetic rats as prepared and used in this Example are such those rats (7 weeks of age, 6 rats per group) which had received an intravenous administration of a single dose of 60 mg/kg of STZ and which were confirmed to have been made diabetic with their showing such symptom that their serum glucose level was not less than 400 (mg/dl), when measured by sampling their blood at 1 week lapse from the STZ administration.
(§3) One week after the intravenous administration of single dose 60 mg/kg of STZ, to the male 7-week-old Wistar rats (6 rats per group), which have been confirmed to have the symptoms of diabetes, were orally administered either one or both of vanadyl sulfate VOSO4 at a single dose of 50 mg/kg and fosfomycin disodium salt (abbreviated as FOM-Na) at a single dose of 160 mg/kg, twice a day for 5 consecutive days, by administration of the test compound(s) in the form of the aqueous solutions. The body weight, amounts (volumes) of feed taken, water taken and urine volume output of the rats under test were measured with lapse of time. Further, sampling of blood from the rats was effected at a time of 24 hours after the final administration of the compound(s) tested. Samplings of the urine from the rats were effected over 12 hours after the final administration of the compound(s) tested, and the blood sample and the urine samples as collected were subjected to the following biochemical tests.
(§4) In the biological tests of the blood sample above-mentioned, there were measured the serum glucose level, serum urea nitrogen level, serum creatinine level, serum total protein level and serum albumin level. In the biochemical tests of the urine sample, there were measured the collected amounts of the glucose, total protein and creatinine present in the urine. […] These rats for the comparative purpose were tested similarly to the above tests.

STZ diabetic rats [2] = test: Biochemical test of urine sample of STZ diabetic rats (Example 1); type: in vivo, Wistar rats; conditions: oral twice a day for 5 consecutive days, VOSO4 50 mg/kg, FOM-Na 160 mg/kg
Experimental: as §1, §2, §3, §4

STZ diabetic rats [3] = test: Biochemical tests of serum (blood) sample of STZ diabetic rats (Example 1); type: in vivo, Wistar rats; conditions: oral twice a day for 5 consecutive days, fosfomycin disodium salt 160 mg/kg, vanadyl sulfate 50 mg/kg, alone or combined
Experimental: In this Example, as animals to be tested, the STZ diabetic rats were prepared from normal Wistar rats having an average body weight of 250 g (male, 6 weeks of age). For this purpose, the normal Wistar rats were made diabetic by a single administration of a dose of 60 mg/kg of STZ intravenously. […]
as §2
One week after the intravenous administration of single dose 60 mg/kg of STZ, to the male 7-week-old Wistar rats (6 rats per group), which have been confirmed to have the symptoms of diabetes, were orally administered either one or both of vanadyl sulfate VOSO4 at a single dose of 50 mg/kg and fosfomycin disodium salt (abbreviated as FOM-Na) at a single dose of 160 mg/kg, twice a day for 5 consecutive days, by administration of the test compound(s) in the form of the aqueous solutions. The body weight, amounts (volumes) of feed taken, water taken and urine volume output of the rats under test were measured with lapse of time. […]

STZ diabetic rats [4] = test: Biochemical tests of blood of STZ diabetic rats (Example 2); type: in vivo, Wistar rats; conditions: 320 mg/kg oral twice a day for 5 consecutive days
Experimental: To male Wistar 7-week-old rats (7 rats per group), which were intravenously administered with a single dose of 60 mg/kg of STZ and which were confirmed to have been made diabetic after the lapse of 1 week from the STZ administration, fosfomycin disodium salt or fosfomycin calcium salt (FOM-Ca) was orally administered at a dose of 320 mg/kg, twice a day for 5 consecutive days. Then, sample of the blood of each test rat was taken and subjected to the biochemical tests.

Na,K-ATPase = conditions: cited from earlier work
STZ diabatic rats = conditions: aqueous saline solution as drinking water; 6th week after the administration; cited from earlier work
rats = test: Toxicity in rats at oral administration; type: in vivo

Compound `C[C@@H]1O[C@@H]1P(=O)([O-])[O-].[Na+].[Na+]` [FOM-Na, fosfomycin disodium salt] has a Body weight (STZ diabetic rats [1]; Day 0) of 235 ± 4 g, a Feed volume taken (STZ diabetic rats [1]; Day 0) of 36 ± 1 g and a Urine volume output (STZ diabetic rats [1]; Day 0) of 115 ± 5 mL. It also gave a Water volume taken (STZ diabetic rats [1]; Day 0) of 153 ± 5 g, a Body weight (STZ diabetic rats [1]; Day 5) of 282 ± 3 g and a Feed volume taken (STZ diabetic rats [1]; Day 5) of 37 ± 1 g. The Urine volume output (STZ diabetic rats [1]; Day 5) was 106 ± 7 mL, the Water volume taken (STZ diabetic rats [1]; Day 5) was 142 ± 16 g and the “Urine Creatinine” value (STZ diabetic rats [2]; Day 0) was 12.5 ± 0.7 mg/12 hr. For the same compound, the “Urine Glucose” value (STZ diabetic rats [2]; Day 0) was 9.2 ± 0.9 g/12 hr, the “Urine Total protein” value (STZ diabetic rats [2]; Day 0) was 4.2 ± 1.1 g/12 hr and the “Urine Creatinine” value (STZ diabetic rats [2]; Day 5) was 12.5 ± 0.8 mg/12 hr. The “Urine Glucose” value (STZ diabetic rats [2]; Day 5) was 8.9 ± 1.3 g/12 hr, the “Urine Total protein” value (STZ diabetic rats [2]; Day 5) was 5.6 ± 2.2 g/12 hr and the “Effect on serum glucose level (in words)” value (STZ diabetic rats [3]; disodium salt) was “tendency to improve the serum glucose level; also recorded: action of lowering an unusually high serum glucose level”. The “Effect on serum glucose level / symptoms of diabetes (in words)” value (shortened to “Effect on serum glucose level / symptoms”) (STZ diabetic rats [4]; disodium salt) was “evidently ameliorate an unusually high serum glucose level; also recorded: clearly ameliorate”, the “Blood Glucose” value (STZ diabetic rats [4]; Day 0) was 432 ± 6 mg/dL and the “Blood Triglyceride” value (STZ diabetic rats [4]; Day 0) was 211 ± 30 mg/d1. The “Blood Albumin” value (STZ diabetic rats [4]; Day 5) was 4.0 ± 0.1 g/dL, the “Blood Creatinine” value (STZ diabetic rats [4]; Day 5) was 0.50 ± 0.00 mg/dL and the “Blood Glucose” value (STZ diabetic rats [4]; Day 5) was 345 ± 23 mg/dL. For the same compound, the “Blood Total protein” value (STZ diabetic rats [4]; Day 5) was 5.26 ± 0.06 g/dL and the “Blood Triglyceride” value (STZ diabetic rats [4]; Day 5) was 65 ± 3 mg/d1.

For `[Na+].[Na+].[Na+].[O]=[V]([O-])([O-])[O-]` [sodium orthovanadate], the “Inhibition of Na,K-ATPase (in words)” value (Na,K-ATPase) is given as “strongly inhibit”.

In the case of `C[C@@H]1O[C@@H](O[C@H]2C[C@@H](O)[C@]3(CO)[C@H]4[C@H](O)C[C@]5(C)[C@@H](C6=CC(=O)OC6)CC[C@]5(O)[C@@H]4CC[C@]3(O)C2)[C@H](O)[C@H](O)[C@H]1O` [ouabain], the “Inhibition of Na,K-ATPase (in words)” value (Na,K-ATPase) is given as “strong inhibitor”.

For sodium metavanadate, the “Serum glucose level (in words)” value (STZ diabatic rats) is listed as “returned to the normal level”.

For `C[C@@H]1O[C@@H]1P(=O)([O-])[O-].[Ca+2]` [FOM-Ca, fosfomycin calcium salt], the “Effect on serum glucose level / symptoms” value (STZ diabetic rats [4]; listed as calcium salt, calcium salt) was “evidently ameliorate an unusually high serum glucose level”, the “Effect on serum glucose level / symptoms” value (STZ diabetic rats [4]; listed as fosfomycin calcium salt, calcium salt) was “clearly ameliorate” and the “Blood Glucose” value (STZ diabetic rats [4]; Day 0) was 431 ± 5 mg/dL. The “Blood Triglyceride” value (STZ diabetic rats [4]; Day 0) was 178 ± 18 mg/d1, the “Blood Albumin” value (STZ diabetic rats [4]; Day 5) was 4.1 ± 0.1 g/dL and the “Blood Creatinine” value (STZ diabetic rats [4]; Day 5) was 0.51 ± 0.01 mg/dL. For the same compound, the “Blood Glucose” value (STZ diabetic rats [4]; Day 5) was 336 ± 23 mg/dL, the “Blood Total protein” value (STZ diabetic rats [4]; Day 5) was 5.37 ± 0.07 g/dL and the “Blood Triglyceride” value (STZ diabetic rats [4]; Day 5) was 59 ± 7 mg/d1. The LD50 (rats; oral administration) was ≥ 3500 mg/kg.

Work on `O=S(=O)([O-])[O-].[O]=[V+2]` [VOSO4, vanadyl sulfate] yielded a Body weight (STZ diabetic rats [1]; Day 0) of 226 ± 8 g, a Feed volume taken (STZ diabetic rats [1]; Day 0) of 35 ± 2 g and a Urine volume output (STZ diabetic rats [1]; Day 0) of 111 ± 10 mL. It also gave a Water volume taken (STZ diabetic rats [1]; Day 0) of 140 ± 12 g, a Body weight (STZ diabetic rats [1]; Day 5) of 239 ± 9 g and a Feed volume taken (STZ diabetic rats [1]; Day 5) of 29 ± 4 g. For the same compound, the Urine volume output (STZ diabetic rats [1]; Day 5) was 82 ± 21 mL, the Water volume taken (STZ diabetic rats [1]; Day 5) was 99 ± 24 g and the “Urine Creatinine” value (STZ diabetic rats [2]; Day 0) was 12.5 ± 1.8 mg/12 hr. The “Urine Glucose” value (STZ diabetic rats [2]; Day 0) was 9.1 ± 1.4 g/12 hr, the “Urine Total protein” value (STZ diabetic rats [2]; Day 0) was 7.2 ± 8.2 g/12 hr and the “Urine Creatinine” value (STZ diabetic rats [2]; Day 5) was 12.1 ± 2.5 mg/12 hr. The “Urine Glucose” value (STZ diabetic rats [2]; Day 5) was 6.8 ± 3.2 g/12 hr, the “Urine Total protein” value (STZ diabetic rats [2]; Day 5) was 3.9 ± 0.8 g/12 hr and the “Effect on serum glucose level (in words)” value (STZ diabetic rats [3]) was “action of lowering an unusually high serum glucose level”. The “Toxicity (in words)” value (rats; oral administration of 50 mg/kg) was “no toxicity”.
